Test results reported in ChEMBL document CHEMBL1201862, “PubChem BioAssay data set” (2004).
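All cell lines were grown in 96-well plates and treated with compound for 48 hours. GI50 marks 50% less growth.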 Active and inactive are the calls of the source. Cut-off read from the data, not from the text of the source: active = GI50 up to about 1.1 µM and inactive = higher.

Assays:
Test in all cases: NCI anticancer screen, dose series, 48 h
[1] = tested on: A549
[2] = tested on: SW-620
[3] = tested on: HL-60
[4] = tested on: LOX IMVI
[5] = tested on: HCC 2998
[6] = tested on: HOP-62
[7] = tested on: RPMI-8226
[8] = tested on: SK-MEL-5
[9] = tested on: SF-539
[10] = tested on: OVCAR-3
[11] = tested on: Malme-3M
[12] = tested on: SK-MEL-28
[13] = tested on: HCT-116
[14] = tested on: RXF 393
[15] = tested on: OVCAR-4
[16] = tested on: UO-31

Measured: GI50

C/C(CC(=O)Nc1ccc(Cl)cc1)=N\NC(N)=S
inactive: [1] 26.5 µM | [2] > 100 µM | [3] 12.8 µM | [4] 1.81 µM | [5] 30.9 µM | [6] 67.9 µM | [7] 61.8 µM | [8] 26.1 µM | [9] 34.2 µM | [10] > 100 µM | [11] > 100 µM | [12] > 100 µM | [13] 71.4 µM | [14] > 100 µM

O=C(O)CCC1(Br)CCCCC(Br)C1=O (stereo not given)
inactive: [1] > 100 µM | [2] > 100 µM | [3] > 100 µM | [15] > 100 µM | [5] > 100 µM | [6] > 100 µM | [7] > 100 µM | [16] > 10 µM | [8] > 100 µM | [9] > 100 µM | [10] > 100 µM | [11] > 100 µM | [12] > 100 µM | [13] > 100 µM | [14] 85.9 µM

C[C@]12Cc3conc3C(O)=C1CC[C@@H]1C2CC[C@@]2(C)C1CC[C@@H]2O (stereo not given in full)
inactive: [1] 17.9 µM | [2] 15.5 µM | [3] 2.55 µM | [4] 4.5 µM | [15] 31.6 µM | [6] 50.4 µM | [7] 1.93 µM | [16] 15.3 µM | [8] 10.5 µM | [9] 15.8 µM | [10] 6.22 µM | [11] 9.4 µM | [12] 12.1 µM | [14] 17.4 µM

CC(=O)Oc1ccc2c(=O)c(C(C)=O)coc2c1
inactive: [1] > 100 µM | [2] > 100 µM | [3] > 100 µM | [4] 81.8 µM | [15] > 100 µM | [6] > 100 µM | [7] > 100 µM | [16] > 100 µM | [8] > 100 µM | [9] > 100 µM | [10] > 100 µM | [12] > 100 µM | [13] > 100 µM | [14] > 100 µM

COc1ccccc1/C=C(\C#N)C(=O)c1ccccc1
inactive: [1] > 100 µM | [2] > 100 µM | [3] > 100 µM | [4] > 100 µM | [15] > 100 µM | [5] > 100 µM | [6] > 100 µM | [7] > 100 µM | [16] > 100 µM | [8] > 100 µM | [9] > 100 µM | [10] > 100 µM | [11] > 100 µM | [12] > 100 µM | [13] > 100 µM

NCCn1cnc2nc(NC(=O)c3ccccc3)[nH]c(=O)c21
inactive: [1] > 100 µM | [2] > 100 µM | [3] > 100 µM | [4] > 100 µM | [5] > 100 µM | [6] > 100 µM | [7] > 100 µM | [16] > 100 µM | [9] > 100 µM | [10] > 100 µM | [11] > 100 µM | [12] > 100 µM | [13] > 100 µM | [14] > 100 µM

Cc1ccc(S(=O)(=O)c2ccc(N)cc2)cc1
inactive: [1] > 100 µM | [2] > 100 µM | [3] > 100 µM | [15] > 100 µM | [5] > 100 µM | [6] > 100 µM | [7] > 100 µM | [16] > 100 µM | [8] > 100 µM | [9] > 100 µM | [10] > 100 µM | [11] > 100 µM | [12] > 100 µM | [13] > 100 µM | [14] > 100 µM

O=C1C(=O)N(C2C3CC4CC(C3)CC2C4)C(=O)C(=O)C1c1nc2ccccc2o1 (stereo not given)
inactive: [1] > 100 µM | [2] 55 µM | [4] > 100 µM | [15] > 100 µM | [5] 57.5 µM | [6] > 100 µM | [7] 52.4 µM | [16] > 100 µM | [9] 90.6 µM | [10] 25.1 µM | [11] 36 µM | [12] > 100 µM | [13] 37 µM | [14] 70 µM

CCCCCCCCCCCOc1ccc(C(=O)C(=O)c2ccc(OCCCCCCCCCCC)c(OCCCCCCCCCCC)c2)cc1OCCCCCCCCCCC
inactive: [1] > 100 µM | [2] > 100 µM | [3] > 100 µM | [4] > 100 µM | [15] > 100 µM | [5] > 100 µM | [6] > 100 µM | [7] > 100 µM | [16] > 100 µM | [8] > 100 µM | [9] > 100 µM | [10] > 100 µM | [11] > 100 µM | [12] > 100 µM | [13] > 100 µM

CC(=O)Nc1ccc(C(=O)N2N=C(C)/C(=C/c3ccccc3O)C2=O)cc1
inactive: [1] > 100 µM | [2] > 100 µM | [3] > 100 µM | [4] > 100 µM | [15] > 100 µM | [5] > 100 µM | [6] > 100 µM | [7] > 100 µM | [16] > 100 µM | [8] > 100 µM | [9] > 100 µM | [10] > 100 µM | [11] > 100 µM | [12] > 100 µM | [13] > 100 µM
